Patent publication US10323041B2, “Bicyclic derivatives, a process for their preparation and pharmaceutical compositions containing them” (LES LABORATOIRES SERVIER, priority 2015, dated 2019)
Read-outs that look alike come from different tables or passages of the source.

Experiments:
Mcl-1 protein = Mcl-1 protein (Homo sapiens, UniProt Q07820); assay: Inhibition of Mcl-1 by the fluorescence polarisation technique; assay type: binding
Protocol: The relative binding potency of each compound was determined via fluorescence Polarisation (FP). The method utilised a Fluorescein labelled ligand Fluorescein-βAla-Ahx-[A-REIGAQLRRMADDLNAQY (SEQ ID NO: 1)]-OH; mw 2,765) which binds to the Mcl-1 protein (such that corresponds to the UniProtKB® primary accession number: Q07820) leading to an increased anisotropy measured in milli-polarisation (mP) units using a reader. The addition of a compound which binds competitively to the same site as the ligand will result in a greater proportion of unbound ligand in the system indicated by a decrease in mP units.
Method 1: An 11 point serial dilution of each compound was prepared in DMSO and 2 μl transferred into flat bottomed, low binding, 384-well plate (final DMSO concentration 5%). 38 μl of buffer (10 mM 4-(2-hydroxyethyl)-1-piperazineethanesulfonic acid [HEPES], 150 mM NaCl, 0.05% Tween 20, pH 7.4), containing the Fluorescein labelled ligand (final concentration 1 nM) and Mcl-1 protein (final concentration 5 nM) was then added.
(§1) Assay plates were incubated ˜2 hours at room temperature before FP was measured on a […] Synergy2 reader (Ex. 528 nm, Em. 640 nm, Cut off 510 nm) and mP units calculated. The binding of increasing doses of test compound was expressed as a percentage reduction in mP compared to a window established between ‘5% DMSO only’ and ‘100% inhibition’ controls. 11-point dose response curves were plotted with XL-Fit software using a 4-Parameter Logistic Model (Sigmoidal Dose-Response Model) and the inhibitory concentrations that gave a 50% reduction in mP (IC50) were determined. Results obtained using Method 1 are presented in Table 1 below; IC50 of Mcl-1 inhibition obtained using Method 1 are not underlined.
Method 2: An 11 point serial dilution of each compound was prepared in DMSO and 2 μl transferred into flat bottomed, low binding, 384-well plate (final DMSO concentration 5%). 38 μl of buffer (20 mM Na2HPO4, 1 mM EDTA, 50 mM NaCl, pH 7.4), containing the Fluorescein labelled ligand (final concentration 10 nM) and Mcl-1 protein (final concentration 10 nM) was then added.
as §1, with “inhibition’ controls (50 μM unlabelled ligand).” for “inhibition’ controls.”, “Method 2” for “Method 1”, “are” for “are not”

[1] = system: H929 multiple myeloma tumour line; assay: In vitro cytotoxicity, Microculture Tetrazolium Assay on H929 cells; assay type: cell-based; details: Homo sapiens, NCI-H929, exposed for 48 hours, cell viability, read-out: IC50 (M) MTT H929
Protocol: The cytotoxicity studies were carried out on the H929 multiple myeloma tumour line.
The cells are distributed onto microplates and exposed to the test compounds for 48 hours. The cell viability is then quantified by a colorimetric assay, the Microculture Tetrazolium Assay (Cancer Res., 1987, 47, 939-942).

[2] = Method 1 (not underlined) or Method 2 (underlined), underlining not visible, first value where cell prints two, read-out: IC50 (M) Mcl-1 FP
[3] = @ 10 μM test compound, partial inhibitors

Chain of Mcl-1 protein (Q07820 whole entry): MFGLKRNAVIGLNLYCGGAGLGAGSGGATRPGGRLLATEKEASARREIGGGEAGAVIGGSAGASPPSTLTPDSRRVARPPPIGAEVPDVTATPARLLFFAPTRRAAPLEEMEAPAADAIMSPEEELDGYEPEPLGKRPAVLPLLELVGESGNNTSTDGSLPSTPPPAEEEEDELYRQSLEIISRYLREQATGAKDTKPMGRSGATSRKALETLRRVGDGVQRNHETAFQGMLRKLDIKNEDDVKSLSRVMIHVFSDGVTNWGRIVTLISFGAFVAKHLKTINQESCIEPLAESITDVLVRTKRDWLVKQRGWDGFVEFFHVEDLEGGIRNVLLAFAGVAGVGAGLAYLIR

SMILES | IC50 (Mcl-1 protein; [2]) [M] | other results
COc1ccccc1-c1nccc(COc2ccccc2CC(Oc2cccc3oc(-c4ccc(F)cc4)c(-c4ccc(OCCN5CCN(C)CC5)c(Cl)c4C)c23)C(=O)O)n1 (single isomer, unassigned) [Example 64] | 7.4e-09 | IC50 [1]: 4.71e-08 M
COc1ccccc1C[C@@H](Oc1ncnc2oc(-c3ccc(F)cc3)c(-c3ccc(OCCN4CCN(C)CC4)c(Cl)c3C)c12)C(=O)O [Example 3, (2R)-2-{[5-{3-chloro-2-methyl-4-[2-(4-methylpiperazin-1-yl)ethoxy]phenyl}-6-(4-fluorophenyl)furo[2,3-d]pyrimidin-4-yl]oxy}-3-(2-methoxyphenyl) propanoic acid] | 1.7e-08 | IC50 [1]: 3.64e-07 M
CCc1c(-c2cccc(Cl)c2C)c2c(N[C@H](Cc3ccccc3)C(=O)O)ncnc2n1C(C)C [Example 39, N-[(5Sa)-5-(3-chloro-2-methylphenyl)-6-ethyl-7-(propan-2-yl)-7H-pyrrolo[2,3-d]pyrimidin-4-yl]-D-phenylalanine] | – | percentage fluorescence polarization inhibition (Mcl-1 protein; @ 50 μM test compound, partial inhibitors, 50 µM): 77.75% @ 50 μM
C=CCn1c(Br)c(-c2cccc(Cl)c2C)c2c(NC(Cc3ccccc3)C(=O)O)ncnc21 [Example 43, N-[6-bromo-(5Ra)-5-(3-chloro-2-methylphenyl)-7-(prop-2-en-1-yl)-7H-pyrrolo[2,3-d]pyrimidin-4-yl]-D-phenylalanine] | – | percentage fluorescence polarization inhibition (Mcl-1 protein; @ 50 μM test compound, partial inhibitors): 66.9% @ 50 μM
Cc1c(Cl)cccc1-c1c2n(c3ncnc(N[C@H](Cc4ccccc4)C(=O)O)c13)CCC2 [Example 46, N-[5-(3-chloro-2-methylphenyl)-7,8-dihydro-6H-pyrimido[5,4-b]pyrrolizin-4-yl]-D-phenylalanine] | – | inhibition at 50 µM (Mcl-1 protein; @ 50 μM test compound, partial inhibitors, read-out: percentage fluorescence polarization inhibition): 71%
CCc1sc2cccc(OC(Cc3ccccc3)C(=O)O)c2c1-c1ccc(O)c(Cl)c1C [Example 49, (2R)-2-{[(3Sa)-3-(3-chloro-4-hydroxy-2-methylphenyl)-2-ethyl-1-benzothiophen-4-yl]oxy}-3-phenylpropanoic acid] | 3.9e-08 | –
CCc1sc2cccc(OC(Cc3ccccc3)C(=O)O)c2c1-c1ccc(O)c(Cl)c1C [Example 50, (2R)-2-{[(3Ra)-3-(3-chloro-4-hydroxy-2-methylphenyl)-2-ethyl-1-benzothiophen-4-yl]oxy}-3-phenylpropanoic acid] | – | percentage fluorescence polarization inhibition (Mcl-1 protein; [3]): 65.85% @ 10 μM
CCc1sc2cccc(CC(Cc3ccccc3)C(=O)O)c2c1-c1ccc(O)c(Cl)c1C (stereo not drawn) [Example 54, 2-benzyl-3-[3-(3-chloro-4-hydroxy-2-methylphenyl)-2-ethyl-1-benzothiophen-4-yl]propanoic acid] | 1.2e-07 | –
COc1ccccc1C[C@@H](Oc1cccc2cc(-c3ccc(F)cc3)n(-c3ccc(OCCN4CCN(C)CC4)c(Cl)c3C)c12)C(=O)O [Example 55] | – | percentage fluorescence polarization inhibition (Mcl-1 protein; [3]): 55.35% @ 10 μM
COc1ccccc1CC(Oc1cccc2cc(-c3ccc(F)cc3)n(-c3ccc(OCCN4CCN(C)CC4)c(Cl)c3C)c12)C(=O)O (stereo not drawn) [Example 56] | 4.7e-08 | –
COc1ccccc1CC(Oc1cccc2c(Cl)c(-c3ccc(F)cc3)n(-c3ccc(OCCN4CCN(C)CC4)c(Cl)c3C)c12)C(=O)O [Example 57, (2R)-2-{[3-chloro-(1Sa)-1-{3-chloro-2-methyl-4-[2-(4-methylpiperazin-1-yl)ethoxy]phenyl}-2-(4-fluorophenyl)-1H-indol-7-yl]oxy}-3-(2-methoxyphenyl)propanoic acid] | 1.7e-07 | –
COc1ccccc1CC(Oc1cccc2cc(-c3ccco3)n(-c3ccc(OCCN4CCN(C)CC4)c(Cl)c3C)c12)C(=O)O [Example 58, (2R)-2-{[(1Ra)-1-{3-chloro-2-methyl-4-[2-(4-methylpiperazin-1-yl)ethoxy]phenyl}-2-(furan-2-yl)-1H-indol-7-yl]oxy}-3-(2-methoxyphenyl)propanoic acid] | – | percentage fluorescence polarization inhibition (Mcl-1 protein; [3]): 51.9% @ 10 μM
COc1ccccc1CC(Oc1cccc2oc(-c3ccc(F)cc3)c(-c3ccc(OCCN4CCN(C)CC4)c(Cl)c3C)c12)C(=O)O [Example 61, (2R)-2-{[(3Ra)-3-{3-chloro-2-methyl-4-[2-(4-methylpiperazin-1-yl)ethoxy]phenyl}-2-(4-fluorophenyl)-1-benzofuran-4-yl]oxy}-3-(2-methoxyphenyl)propanoic acid] | – | percentage fluorescence polarization inhibition (Mcl-1 protein; [3]): 52.8% @ 10 μM
Cc1c(-c2c(-c3ccc(F)cc3)oc3cc(F)cc(OC(Cc4ccccc4OCC(F)(F)F)C(=O)O)c23)ccc(OCCN2CCN(C)CC2)c1Cl [Example 66, (2R)-2-{[(3Sa)-3-{3-chloro-2-methyl-4-[2-(4-methylpiperazin-1-yl)ethoxy]phenyl}-6-fluoro-2-(4-fluorophenyl)-1-benzofuran-4-yl]oxy}-3-[2-(2,2,2-trifluoroethoxy)phenyl]propanoic acid] | 1.6e-06 | –
Cc1c(Cl)cccc1-c1csc2ccnc(N[C@H](Cc3ccccc3)C(=O)O)c12 [Example 70, N-[3-(3-chloro-2-methylphenyl)thieno[3,2-c]pyridin-4-yl]-D-phenylalanine] | – | inhibition at 10 µM (Mcl-1 protein; @ 10 μM test compound, partial inhibitors, read-out: percentage fluorescence polarization inhibition): 13.6%

Further lines, with some results ahead:

IC50 (Mcl-1 protein; [2]) [M] | SMILES | other results
2.4e-08 | COc1ccccc1-c1nccc(COc2ccccc2CC(Oc2cccc3c2c(-c2ccc(OCCN4CCN(C)CC4)c(Cl)c2C)c(-c2ccc(F)cc2)n3C)C(=O)O)n1 (single isomer, unassigned) [Example 69] | IC50 [1]: 1.04e-07 M
2.9e-08 | Cc1c(-c2c(-c3ccc(F)cc3)oc3ncnc(O[C@H](Cc4ccccc4OCc4cnccn4)C(=O)O)c23)ccc(OCCN2CCN(C)CC2)c1Cl [Example 4, (2R)-2-{[5-{3-chloro-2-methyl-4-[2-(4-methylpiperazin-1-yl)ethoxy]phenyl}-6-(4-fluorophenyl)furo[2,3-d]pyrimidin-4-yl]oxy}-3-[2-(pyrazin-2-ylmethoxy)phenyl]propanoic acid] | IC50 [1]: 3.29e-07 M
8.6e-07 | CCc1c(-c2ccc(OCCN3CCN(C)CC3)c(Cl)c2C)c2c(OC(Cc3ccccc3)C(=O)O)ncnc2n1Cc1ccccc1 [Example 40, (2R)-2-[(7-benzyl-(5Sa)-5-{3-chloro-2-methyl-4-[2-(4-methylpiperazin-1-yl)ethoxy]phenyl}-6-ethyl-7H-pyrrolo[2,3-d]pyrimidin-4-yl)oxy]-3-phenylpropanoic acid] | IC50 (Mcl-1 protein; value after '/', presumably the other FP method (Method 1 / Method 2), read-out: IC50 (M) Mcl-1 FP, second value of the cell): 3.3e-08 M
2.5e-06 | C=CCn1c(Br)c(-c2cccc(Cl)c2C)c2c(NC(Cc3ccccc3)C(=O)O)ncnc21 [Example 44, N-[6-bromo-(5Sa)-5-(3-chloro-2-methylphenyl)-7-(prop-2-en-1-yl)-7H-pyrrolo[2,3-d]pyrimidin-4-yl]-D-phenylalanine] | –
1.8e-06 | Cc1c(-c2cn(Cc3ccccc3)c3ncnc(O[C@H](Cc4ccccc4)C(=O)O)c23)ccc(OCCN2CCN(C)CC2)c1Cl [Example 45, (2R)-2-[(7-benzyl-5-{3-chloro-2-methyl-4-[2-(4-methylpiperazin-1-yl)ethoxy]phenyl}-7H-pyrrolo[2,3-d]pyrimidin-4-yl)oxy]-3-phenylpropanoic acid] | –
8.2e-07 | COc1ccccc1CC(Oc1cccc2oc(-c3ccc(F)cc3)c(-c3ccc(OCCN4CCN(C)CC4)c(Cl)c3C)c12)C(=O)O [Example 62, (2R)-2-{[(3Sa)-3-{3-chloro-2-methyl-4-[2-(4-methylpiperazin-1-yl)ethoxy]phenyl}-2-(4-fluorophenyl)-1-benzofuran-4-yl]oxy}-3-(2-methoxyphenyl)propanoic acid] | –
1e-06 | Cc1c(-c2c(-c3ccc(F)cc3)oc3cccc(OC(Cc4ccccc4OCC(F)(F)F)C(=O)O)c23)ccc(OCCN2CCN(C)CC2)c1Cl [Example 65, (2R)-2-{[(3Sa)-3-{3-chloro-2-methyl-4-[2-(4-methylpiperazin-1-yl)ethoxy]phenyl}-2-(4-fluorophenyl)-1-benzofuran-4-yl]oxy}-3-[2-(2,2,2-trifluoroethoxy)phenyl]propanoic acid] | –
